Like-named read-outs stand apart in the source and are kept apart here.
Legend:
[1] = Urine PK (urinary excretion, renal clearance) in healthy subjects; details: for CL renal: human, urine, intravenous, CLr
[2] = Part B multiple-ascending-dose plasma PK in healthy subjects; assay type: in vivo, human; details: for Cmax / Tmax / AUC / clearance / half-life / Vd: human, plasma, iv; for AUC: read-out: AUC0–tau; for Vd: read-out: Vss
Experimental: This was a 4-part, double-blind, placebo-controlled study (15 cohorts) of DUR administered as a 3-h i.v. infusion (except for cohort 4, in which a 2-h i.v. infusion was evaluated) (see Table S5 in the supplemental material).
The blank control matrix was made up of human plasma (BioreclamationIVT) diluted 1:1 with SigmaFast (reconstituted protease inhibitor cocktail tablet [product S8820; Sigma-Aldrich, St. Louis, MO] in 10 ml of water) for preparation of calibration standards and QC samples. […] A 100-μl aliquot of the supernatant was transferred to 96-well plates. Samples were diluted further with 400 μl of water, and 5 μl of sample was injected into the LC-MS/MS system for analysis. […] The LLOQ for all analytes was 5 ng/ml.
AUC was calculated using the log-linear trapezoidal rule.
Pharmacokinetic parameters were summarized at each assessment time point using the mean ± standard deviation (SD), the percent coefficient of variation (CV), median, minimum, and maximum. Single-ascending-dose study data were assessed for dose proportionality using Cmax and AUC, and accumulation ratios was determined using repeat-dose cohorts. […] Noncompartmental analysis of PK parameters was performed using Phoenix WinNonlin (v6.4) software to determine PK parameters.

[3] = part C cohort 13, Day 5 (DUR 1 g + sulbactam 1 g)
[4] = part A cohort 6, single 4 g, n=4
[5] = part A cohort 7, single 8 g, n=5
[6] = part A cohort 8 (elderly), single 1 g, n=5
[7] = part B cohort 9, first 48 hours, dose over 48 hours 2.00 g (8 doses)
[8] = part B cohort 9, following the final dose on Day 8, 0.250 g
[9] = part B cohort 10, first 48 hours, dose over 48 hours 4.00 g (8 doses)
[10] = part B cohort 10, following the final dose on Day 8, 0.500 g
[11] = part B cohort 11, first 48 hours, dose over 48 hours 8.00 g (8 doses)
[12] = part B cohort 11, following the final dose on Day 8, 1.000 g
[13] = part B cohort 12, first 48 hours, dose over 48 hours 16.00 g (8 doses)
[14] = part B cohort 12, following the final dose on Day 8, 2.000 g
[15] = part C cohort 13, Day 1 (DUR 1 g alone)
[16] = part C cohort 14, Day 1 (DUR 1 g alone), mean
[17] = part D cohort 15, Day 1, DUR + SUL + IMI-CIL q6h, mean, n=10
[18] = part D cohort 15, Day 11, DUR + SUL + IMI-CIL q6h, mean, n=10
[19] = 0.25 g, part B cohort 9, 0.25 g q6h 3-h i.v. infusion, day 1
[20] = 0.25 g, part B cohort 9, 0.25 g q6h 3-h i.v. infusion, day 8
[21] = 0.5 g, part B cohort 10 (4 subjects), 0.5 g q6h 3-h i.v. infusion, day 1
[22] = 0.5 g, part B cohort 10 (4 subjects), 0.5 g q6h 3-h i.v. infusion, day 8
[23] = 1 g, part B cohort 11 (5 subjects), 1.0 g q6h 3-h i.v. infusion, day 1
[24] = 1 g, part B cohort 11 (5 subjects), 1.0 g q6h 3-h i.v. infusion, day 8
[25] = 2 g, part B cohort 12, 2.0 g q6h 3-h i.v. infusion, day 1
[26] = 2 g, part B cohort 12, 2.0 g q6h 3-h i.v. infusion, day 8
[27] = part B cohort 9, 0.25 g q6h 3-h i.v. infusion, day 8
[28] = part B cohort 10 (4 subjects), 0.5 g q6h 3-h i.v. infusion, day 8
[29] = part B cohort 11 (5 subjects), 1.0 g q6h 3-h i.v. infusion, day 8
[30] = part B cohort 12, 2.0 g q6h 3-h i.v. infusion, day 8

Compound: CC1=C[C@@H]2CN(C(=O)N2OS(=O)(=O)O)[C@@H]1C(N)=O [DUR, Durlobactam]
- CL renal ([1]; 0.25 g, mean, part B cohort 9, following the final dose on Day 8, 0.250 g): 84.1 mL/min
- CL renal ([1]; 0.25 g, median, part B cohort 9, following the final dose on Day 8, 0.250 g): 73.5 mL/min
- CL renal ([1]; 0.5 g, mean, part B cohort 10, following the final dose on Day 8, 0.500 g): 95.6 mL/min
- CL renal ([1]; 0.5 g, median, part B cohort 10, first 48 hours, dose over 48 hours 4.00 g (8 doses)): 291 mL/min
- CL renal ([1]; 0.5 g, median, part B cohort 10, following the final dose on Day 8, 0.500 g): 96.2 mL/min
- CL renal ([1]; 1 g, mean, part A cohort 8 (elderly), single 1 g, n=5): 55.4 mL/min
- CL renal ([1]; 1 g, mean, part B cohort 11, first 48 hours, dose over 48 hours 8.00 g (8 doses)): 364 mL/min
- CL renal ([1]; 1 g, mean, part B cohort 11, following the final dose on Day 8, 1.000 g): 93.6 mL/min
- CL renal ([1]; 1 g, median, part A cohort 8 (elderly), single 1 g, n=5): 66 mL/min
- CL renal ([1]; 1 g, median, part B cohort 11, following the final dose on Day 8, 1.000 g): 98 mL/min
- CL renal ([1]; 2 g, mean, part B cohort 9, first 48 hours, dose over 48 hours 2.00 g (8 doses)): 238 mL/min
- CL renal ([1]; 2 g, mean, part B cohort 12, following the final dose on Day 8, 2.000 g): 108 mL/min
- CL renal ([1]; 2 g, median, part B cohort 9, first 48 hours, dose over 48 hours 2.00 g (8 doses)): 220 mL/min
- CL renal ([1]; 2 g, median, part B cohort 12, following the final dose on Day 8, 2.000 g): 109 mL/min
- CL renal ([1]; 4 g, mean, part A cohort 6, single 4 g, n=4): 132 mL/min
- CL renal ([1]; 4 g, mean, part B cohort 10, first 48 hours, dose over 48 hours 4.00 g (8 doses)): 272 mL/min
- CL renal ([1]; 4 g, median, part A cohort 6, single 4 g, n=4): 134 mL/min
- CL renal ([1]; 8 g, mean, part A cohort 7, single 8 g, n=5): 109 mL/min
- CL renal ([1]; 8 g, median, part A cohort 7, single 8 g, n=5): 130 mL/min
- CL renal ([1]; 8 g, median, part B cohort 11, first 48 hours, dose over 48 hours 8.00 g (8 doses)): 392 mL/min
- CL renal ([1]; 16 g, mean, part B cohort 12, first 48 hours, dose over 48 hours 16.00 g (8 doses)): 307 mL/min
- CL renal ([1]; 16 g, median, part B cohort 12, first 48 hours, dose over 48 hours 16.00 g (8 doses)): 307 mL/min
- CL renal [1, 3]: 81 mL/min
- Ae, mean [1, 4]: 3057.384 mg
- Ae, median [1, 4]: 3114.55 mg
- Fe, mean [1, 4]: 76.4345%
- Fe, median [1, 4]: 77.8635%
- Ae, mean [1, 5]: 4401.576 mg
- Ae, median [1, 5]: 4705.45 mg
- Fe, mean [1, 5]: 55.0196%
- Fe, median [1, 5]: 58.8180%
- Ae, mean [1, 6]: 582.604 mg
- Ae, median [1, 6]: 573.87 mg
- Fe, mean [1, 6]: 58.2604%
- Fe, median [1, 6]: 57.3870%
- intact drug renally excreted ([1]; part A single dose): approximately 50%
- Ae, mean [1, 7]: 953.242 mg
- Ae, median [1, 7]: 1031.41 mg
- Fe, mean [1, 7]: 47.662%
- Fe, median [1, 7]: 51.57%
- Ae, mean [1, 8]: 141.184 mg
- Ae, median [1, 8]: 151.20 mg
- Fe, mean [1, 8]: 56.473%
- Fe, median [1, 8]: 60.48%
- Ae, mean [1, 9]: 2157.551 mg
- Ae, median [1, 9]: 2288.24 mg
- Fe, mean [1, 9]: 53.939%
- Fe, median [1, 9]: 57.21%
- Ae, mean [1, 10]: 337.614 mg
- Ae, median [1, 10]: 329.39 mg
- Fe, mean [1, 10]: 67.523%
- Fe, median [1, 10]: 65.88%
- Ae, mean [1, 11]: 4535.949 mg
- Ae, median [1, 11]: 5204.73 mg
- Fe, mean [1, 11]: 56.699%
- Fe, median [1, 11]: 65.06%
- Ae, mean [1, 12]: 657.112 mg
- Ae, median [1, 12]: 670.87 mg
- Fe, mean [1, 12]: 65.711%
- Fe, median [1, 12]: 67.09%
- Ae, mean [1, 13]: 8856.594 mg
- Ae, median [1, 13]: 7879.32 mg
- Fe, mean [1, 13]: 55.354%
- Fe, median [1, 13]: 49.25%
- Ae, mean [1, 14]: 1386.730 mg
- Ae, median [1, 14]: 1278.52 mg
- Fe, mean [1, 14]: 69.336%
- Fe, median [1, 14]: 63.93%
- Ae [1, 15]: 409.644 (68.690) mg
- Fe [1, 15]: 40.964 (6.869) %
- Ae [1, 3]: 499.627 (95.305) mg
- Fe [1, 3]: 49.963 (9.530) %
- Ae [1, 16]: 426.643 mg
- Fe [1, 16]: 42.664%
- Ae [1, 17]: 3481.42 mg
- Fe [1, 17]: 43.518%
- Ae [1, 18]: 491.58 mg
- Fe [1, 18]: 49.158%
- Cmax [2, 19]: 6900 ± 1400 ng/mL
- Tmax ([2]; 0.25 g, part B cohort 9, 0.25 g q6h 3-h i.v. infusion, day 1, median): 3 h
- AUC [2, 19]: 23100 ± 4900 ng·h/mL
- Cmax [2, 20]: 7500 ± 1300 ng/mL
- Tmax ([2]; 0.25 g, part B cohort 9, 0.25 g q6h 3-h i.v. infusion, day 8, median): 2.5 h
- AUC [2, 20]: 26200 ± 5200 ng·h/mL
- Cmax [2, 21]: 14900 ± 2200 ng/mL
- Tmax ([2]; 0.5 g, part B cohort 10 (4 subjects), 0.5 g q6h 3-h i.v. infusion, day 1, median): 3 h
- AUC [2, 21]: 50300 ± 9000 ng·h/mL
- Cmax [2, 22]: 14800 ± 1100 ng/mL
- Tmax ([2]; 0.5 g, part B cohort 10 (4 subjects), 0.5 g q6h 3-h i.v. infusion, day 8, median): 3 h
- AUC [2, 22]: 53400 ± 4800 ng·h/mL
- Cmax [2, 23]: 26900 ± 13100 ng/mL
- Tmax ([2]; 1 g, part B cohort 11 (5 subjects), 1.0 g q6h 3-h i.v. infusion, day 1, median): 2.5 h
- AUC [2, 23]: 79800 ± 35900 ng·h/mL
- Cmax [2, 24]: 33400 ± 6000 ng/mL
- Tmax ([2]; 1 g, part B cohort 11 (5 subjects), 1.0 g q6h 3-h i.v. infusion, day 8, median): 3 h
- AUC [2, 24]: 109000 ± 13900 ng·h/mL
- Cmax [2, 25]: 51900 ± 8000 ng/mL
- Tmax ([2]; 2 g, part B cohort 12, 2.0 g q6h 3-h i.v. infusion, day 1, median): 3 h
- AUC [2, 25]: 179000 ± 29900 ng·h/mL
- Cmax [2, 26]: 53300 ± 7800 ng/mL
- Tmax ([2]; 2 g, part B cohort 12, 2.0 g q6h 3-h i.v. infusion, day 8, median): 3 h
- AUC [2, 26]: 193000 ± 31200 ng·h/mL
- clearance [2, 27]: 163 mL/min
- half-life [2, 27]: 1.9 ± 0.4 h
- Vd [2, 27]: 18.5 ± 2.9 L
- clearance [2, 28]: 157 mL/min
- half-life [2, 28]: 2.6 ± 0.1 h
- Vd [2, 28]: 18.1 ± 1.8 L
- clearance [2, 29]: 155 mL/min
- half-life [2, 29]: 3.5 ± 0.9 h
- Vd [2, 29]: 17.2 ± 2 L
- clearance [2, 30]: 177 mL/min
- half-life [2, 30]: 10.1 ± 2.9 h
- Vd [2, 30]: 21.8 ± 2 L
- Accum. index [2, 27]: 1.1 ± 0.07
- Accum. index [2, 28]: 1.3 ± 0.01
- Accum. index [2, 29]: 1.5 ± 0.18
- Accum. index [2, 30]: 3.0 ± 0.69
